# According to patent US12006314B2, “Anti-cancer nuclear hormone receptor-targeting compounds” (Nuvation Bio Inc., priority 2021, dated 2024):
# Changes are numbered by the printed parent chain. pIC50: −log10 of the molar value.
# Experiments:
# [1] = biological target: T1, full-length androgen receptor (HEK293 cells stably expressing) (Homo sapiens, UniProt P10275); assay: AR antagonism assay; format: cell-based; settings: testosterone 1 nM, 20 h, Steady-glo
# T1 construct: HEK293 cells stably expressing the full-length androgen receptor were seeded; expressed in transfected cells
# T1 sequence (P10275 1-920): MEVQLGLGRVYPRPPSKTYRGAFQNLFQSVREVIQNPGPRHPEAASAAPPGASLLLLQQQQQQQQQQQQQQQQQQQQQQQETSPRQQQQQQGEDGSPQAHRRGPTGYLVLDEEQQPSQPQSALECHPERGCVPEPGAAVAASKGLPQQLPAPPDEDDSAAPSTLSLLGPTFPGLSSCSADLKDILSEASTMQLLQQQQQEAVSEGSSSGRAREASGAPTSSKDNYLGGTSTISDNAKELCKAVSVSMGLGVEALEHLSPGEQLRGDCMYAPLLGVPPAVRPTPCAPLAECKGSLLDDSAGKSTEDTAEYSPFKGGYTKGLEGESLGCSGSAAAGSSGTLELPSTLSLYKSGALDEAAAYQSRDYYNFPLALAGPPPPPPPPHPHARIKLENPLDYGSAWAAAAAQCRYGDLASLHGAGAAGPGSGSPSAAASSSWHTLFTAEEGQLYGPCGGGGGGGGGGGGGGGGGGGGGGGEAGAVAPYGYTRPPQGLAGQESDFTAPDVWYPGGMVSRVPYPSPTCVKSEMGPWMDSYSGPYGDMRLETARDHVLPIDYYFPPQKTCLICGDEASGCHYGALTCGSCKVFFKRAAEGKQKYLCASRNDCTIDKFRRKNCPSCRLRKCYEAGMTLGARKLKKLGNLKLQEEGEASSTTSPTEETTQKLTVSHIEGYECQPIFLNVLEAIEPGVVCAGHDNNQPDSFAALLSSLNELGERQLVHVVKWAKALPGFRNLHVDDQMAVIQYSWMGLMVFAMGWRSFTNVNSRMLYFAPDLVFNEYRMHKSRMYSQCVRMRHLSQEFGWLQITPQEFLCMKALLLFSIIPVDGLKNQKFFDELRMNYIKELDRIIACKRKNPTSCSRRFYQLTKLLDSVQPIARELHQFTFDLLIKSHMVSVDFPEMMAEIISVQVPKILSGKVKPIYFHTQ
# Protocol: AR antagonism assay: To evaluate AR antagonist activity, test compound was added to the assay plate (top dose 10 μM, 3 fold serial dilution, 10 point dose response). HEK293 cells stably expressing the full-length androgen receptor were seeded at a density of 20000 cells/well in the assay plate. The assay plate was then incubated at room temperature for 10 minutes and at 37° C., 5% CO2 for 20 minutes. Testosterone is added to the assay plate at 1 nM final concentration and the assay plate incubated at 37° C., 5% CO2 for 20 h. After the incubation period, Steady-glo was added to the assay plate and mixed at room temperature for 20 minutes on an orbital shaker, before reading out on the EnVision plate reader.
# LNCap cells = assay: Cell viability assay LNCap; format: cell-based; settings: Homo sapiens, 144 h, 6 days, CellTiterGlo
# Protocol: (§1) Cell viability assay: LNCap, 22Rv1, MCF7, MDAMB361, T47D, and IEC6 cells were seeded at a density of 500-2000 cells/well in 96 well plates, and a ‘T0’ (timepoint 0) was included along with the assay plate. The plates were then incubated at 37° C., 5% CO2 in a cell culture incubator overnight. On the next day, the ‘T0’ plate was assayed using CellTiterGlo (Promega, Inc) according to the manufacturer's instructions. The appropriate compounds were diluted in DMSO and added to the assay plate (final DMSO concentration of 0.1-0.2%) on the next day. The assay plates were incubated for 6 days at 37° C., 5% CO2. After the incubation period, the plates were assayed using CellTiterGlo (Promega, Inc) according to the manufacturer's instructions and luminescence was read on the EnVision plate reader. Inhibition of the tested compounds was determined by the following formula: Inhibition rate (%)=(1−(RLU compound−RLU day0)/(RLU control−RLU day0))*100%. GraphPadPrism was used to analyze the data and determine GI50/IC50 values.
# [2] = biological target: T2, AR (cytosol from LnCaP cells) (Homo sapiens, UniProt P10275, T878A); assay: AR binding assay; settings: 3H-R1881 1 nM, 4° C. 24 hrs
# T2 construct: endogenous in cells; host or cells: LNCaP cytosol
# T2 sequence (P10275 1-920 T878A): T1 sequence (P10275 1-920) with T878A
# Protocol: AR binding assay: To assess AR binding, test compound (top dose 10 μM, 4 fold serial dilution, 8 point dose response) and control (progesterone) were transferred to the assay plate. Cytosol from LnCaP cells was added to the plate, followed by addition of radiolabeled ^3H-R1881 at a final concentration of 1 nM. The plate was sealed, and the reaction was incubated at 300 rpm at 4° C. for 24 hrs. Radioligand absorption buffer (10 mM Tris-HCl, pH 7.4; 1.5 mM EDTA; 1 mM DTT; 0.25% charcoal; 0.0025% dextran) was then added to the plate, mixed, and incubated at 4° C. for 15 minutes. The plate was then centrifuged at 3000 rpm for 30 minutes at 4° C. The supernatant was transferred to the scint-tube and Tri-carb was used for scintillation counting.
# IEC6 cells = assay: Cell viability assay IEC6; format: cell-based; settings: Rattus norvegicus, IEC-6, 144 h; 6 days, CellTiterGlo
# Protocol: as §1
# 22Rv1 cells = assay: Cell viability assay 22Rv1; format: cell-based; settings: Homo sapiens, 22Rv1, 144 h; 6 days, CellTiterGlo
# Protocol: as §1
Structure (SMILES),pIC50 [1],GI50 (LNCap cells),pIC50 [2],pIC50 (IEC6 cells),GI50 (22Rv1 cells)
"CCc1cc2ncc(CN3CCN(c4ccc(C(=O)NCC5CCN(c6ccc(C(=O)N[C@H]7CC[C@H](Oc8ccc(C#N)c(Cl)c8)CC7)nn6)CC5)nc4)CC3)cc2[nH]c1=O [Compound 1, N-((1r,4r)-4-(3-Chloro-4-cyanophenoxy)cyclohexyl)-6-(4-((5-(4-((7-ethyl-6-oxo-5,6-dihydro-1,5-naphthyridin-3-yl)methyl)piperazin-1-yl)picolinamido)methyl)piperidin-1-yl)pyridazine-3-carboxamide]",< 5.00,≤ 0.5 µM,6.00 to 7.00,< 4.52,0.5 to 5 µM
"CCc1cc2ncc(CN3CCN(CC4CCN(c5ccc(C(=O)N[C@H]6CC[C@H](Oc7ccc(C#N)c(Cl)c7)CC6)nn5)CC4)CC3)cc2[nH]c1=O [Compound 4, N-((1r,4r)-4-(3-Chloro-4-cyanophenoxy)cyclohexyl)-6-(4-((4-((7-ethyl-6-oxo-5,6-dihydro-1,5-naphthyridin-3-yl)methyl)piperazin-1-yl)methyl)piperidin-1-yl)pyridazine-3-carboxamide]",< 5.00,≤ 0.5 µM,> 7.00,< 4.52,≤ 0.5 µM
"CCc1cc2ncc(CN3CCN(CC4CCN(c5ccc(C(=O)N[C@H]6C(C)(C)[C@H](Oc7ccc(C#N)c(Cl)c7)C6(C)C)nn5)CC4)CC3)cc2[nH]c1=O [Compound 13, N-((1r,3r)-3-(3-Chloro-4-cyanophenoxy)-2,2,4,4-tetramethylcyclobutyl)-6-(4-((4-((7-ethyl-6-oxo-5,6-dihydro-1,5-naphthyridin-3-yl)methyl)piperazin-1-yl)methyl)piperidin-1-yl)pyridazine-3-carboxamide]",< 5.00,0.5 to 5 µM,> 7.00,5.30 to 6.30,0.5 to 5 µM
"CCc1cc2ncc(CN3CCN(c4ccc(C(=O)N5CCN(CC6CCN(c7ccc(C(=O)N[C@H]8CC[C@H](Oc9ccc(C#N)c(Cl)c9)CC8)nn7)CC6)CC5)nc4)CC3)cc2[nH]c1=O [Compound 59, N-((1r,4r)-4-(3-Chloro-4-cyanophenoxy)cyclohexyl)-6-(4-((4-(5-(4-((7-ethyl-6-oxo-5,6-dihydro-1,5-naphthyridin-3-yl)methyl)piperazin-1-yl)picolinoyl)piperazin-1-yl)methyl)piperidin-1-yl)pyridazine-3-carboxamide]",< 5.00,0.5 to 5 µM,> 7.00,< 4.52,0.5 to 5 µM
"CCc1cc2ncc(CN3CCN(c4ccc(C(=O)N5CCN(C(=O)C6CCN(c7ccc(C(=O)N[C@H]8CC[C@H](Oc9ccc(C#N)c(Cl)c9)CC8)nn7)CC6)CC5)nc4)CC3)cc2[nH]c1=O [Compound 60, N-((1r,4r)-4-(3-Chloro-4-cyanophenoxy)cyclohexyl)-6-(4-(4-(5-(4-((7-ethyl-6-oxo-5,6-dihydro-1,5-naphthyridin-3-yl)methyl)piperazin-1-yl)picolinoyl)piperazine-1-carbonyl)piperidin-1-yl)pyridazine-3-carboxamide]",< 5.00,0.5 to 5 µM,> 7.00,< 4.52,0.5 to 5 µM
"CCc1cc2ncc(CN3CCN(c4ccc(-c5nnc([C@H](Nc6ccc(C#N)c(Cl)c6)[C@H](C)O)o5)cc4)CC3)cc2[nH]c1=O [Compound 63, 2-Chloro-4-(((1R,2S)-1-(5-(4-(4-((7-ethyl-6-oxo-5,6-dihydro-1,5-naphthyridin-3-yl)methyl)piperazin-1-yl)phenyl)-1,3,4-oxadiazol-2-yl)-2-hydroxypropyl)amino)benzonitrile]",< 5.00,0.5 to 5 µM,6.00 to 7.00,< 4.52,5 to 30 µM
"CCc1cc2ncc(CN3CCN(c4ccc(-c5nnc([C@H](Nc6ccc(C#N)c(Cl)c6C)[C@H](C)O)o5)cc4)CC3)cc2[nH]c1=O [Compound 64, 2-Chloro-4-(((1R,2S)-1-(5-(4-(4-((7-ethyl-6-oxo-5,6-dihydro-1,5-naphthyridin-3-yl)methyl)piperazin-1-yl)phenyl)-1,3,4-oxadiazol-2-yl)-2-hydroxypropyl)amino)-3-methyl Benzonitrile]",< 5.00,0.5 to 5 µM,5.00 to 6.00,5.30 to 6.30,5 to 30 µM
"CCc1cc2ncc(CN3CCN(c4ccc(-c5nnc([C@H]6[C@H](C)OC(=O)N6c6ccc(C#N)c(Cl)c6)o5)cc4)CC3)cc2[nH]c1=O [Compound 65, 2-Chloro-4-((4R,5S)-4-(5-(4-(4-((7-ethyl-6-oxo-5,6-dihydro-1,5-naphthyridin-3-yl)methyl)-piperazin-1-yl)phenyl)-1,3,4-oxadiazol-2-yl)-5-methyl-2-oxooxazolidin-3-yl)benzonitrile]",< 5.00,5 to 30 µM,< 5.00,< 4.52,> 30 µM
"CCc1cc2ncc(CN3CCN(C[C@H]4CC[C@H](COc5cc(F)c([C@@H]6c7[nH]c8ccccc8c7C[C@@H](C)N6CC(C)(C)F)c(F)c5)CC4)CC3)cc2[nH]c1=O [Compound 75, 7-((4-(((1R,4r)-4-((3,5-Difluoro-4-((1R,3R)-2-(2-fluoro-2-methylpropyl)-3-methyl-2,3,4,9-tetrahydro-1H-pyrido[3,4-b]indol-1-yl)phenoxy)methyl)cyclohexyl)methyl)piperazin-1-yl)methyl)-3-ethyl-1,5-naphthyridin-2(1H)-one]",–,–,–,4.52 to 5.30,–
